Experimental data taken from ChEMBL document CHEMBL4270566, “New aziridine-based inhibitors of cathepsin L-like cysteine proteases with selectivity for the Leishmania cysteine protease LmCPB2.8” (Eur J Med Chem, 2018).
Calls of active or inactive are those of the source. No cut-off for these calls is given here.

Key:
Cathepsin B = Cathepsin B (Homo sapiens, UniProt P07858); test: Inhibition of human cathepsin-B at 20 uM using Z-Phe-Arg-AMC as substrate by fluorometric assay relative to control
[1] = target: T1, Falcipain 2 (Plasmodium falciparum) (UniProt Q9N6S8); test: Inhibition of Plasmodium falciparum falcipain 2 at 20 uM using Z-Phe-Arg-AMC as substrate by fluorometric assay relative to control
T1 sequence (whole entry): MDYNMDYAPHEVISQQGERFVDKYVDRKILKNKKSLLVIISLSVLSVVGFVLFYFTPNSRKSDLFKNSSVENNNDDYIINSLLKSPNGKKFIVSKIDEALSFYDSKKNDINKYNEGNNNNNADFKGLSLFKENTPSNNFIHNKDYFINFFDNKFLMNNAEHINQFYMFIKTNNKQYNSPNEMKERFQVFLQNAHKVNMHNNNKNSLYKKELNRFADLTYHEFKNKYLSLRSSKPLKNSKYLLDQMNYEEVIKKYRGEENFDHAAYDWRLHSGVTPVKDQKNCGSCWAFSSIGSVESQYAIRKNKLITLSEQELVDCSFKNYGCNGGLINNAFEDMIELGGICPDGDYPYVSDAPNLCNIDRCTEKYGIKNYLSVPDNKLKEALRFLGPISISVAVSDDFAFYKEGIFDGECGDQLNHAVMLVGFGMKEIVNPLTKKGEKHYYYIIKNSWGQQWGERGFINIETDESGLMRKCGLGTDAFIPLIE

[2] = Inhibition of Leishmania mexicana cathepsin L-like protease CPB2.8 using Z-Phe-Arg-AMC as substrate by fluorometric assay
Cruzipain = Cruzipain (Trypanosoma cruzi, UniProt P25779); test: Inhibition of Trypanosoma cruzi cruzain using Z-Phe-Arg-AMC as substrate by fluorometric assay
Leishmania major [3] = test: Antileishmanial activity against Leishmania major promastigotes; type: functional, organism-based
Rhodesain = Rhodesain (Trypanosoma brucei rhodesiense, UniProt Q95PM0); test: Inhibition of Trypanosoma brucei rhodesiense rhodesain using Z-Phe-Arg-AMC as substrate by fluorometric assay
Procathepsin L [4] = target: T2, Procathepsin L (Homo sapiens, UniProt P07711); test: Inhibition of human cathepsin-L at 20 uM using Z-Phe-Arg-AMC as substrate by fluorometric assay relative to control
Target sequence in this assay (P07711 114-333 limits assumed): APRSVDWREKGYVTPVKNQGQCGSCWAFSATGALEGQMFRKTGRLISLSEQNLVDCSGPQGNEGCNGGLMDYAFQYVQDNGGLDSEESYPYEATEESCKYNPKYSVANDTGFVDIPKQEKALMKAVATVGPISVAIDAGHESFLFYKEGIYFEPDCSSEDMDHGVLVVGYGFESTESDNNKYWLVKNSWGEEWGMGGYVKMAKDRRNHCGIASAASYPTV

Leishmania mexicana [5] = test: Inhibition of Leishmania mexicana cathepsin L-like protease CPB2.8 at 20 uM using Z-Phe-Arg-AMC as substrate by fluorometric assay relative to control
[6] = target: Cruzipain (Trypanosoma cruzi) (UniProt P25779); test: Inhibition of Trypanosoma cruzi cruzain at 20 uM using Z-Phe-Arg-AMC as substrate by fluorometric assay relative to control
[7] = target: Rhodesain (Trypanosoma brucei rhodesiense) (UniProt Q95PM0); test: Inhibition of Trypanosoma brucei rhodesiense rhodesain at 20 uM using Z-Phe-Arg-AMC as substrate by fluorometric assay relative to control
Falcipain 2 = target: T3, Falcipain 2 (Plasmodium falciparum, UniProt Q9N6S8); test: Inhibition of Plasmodium falciparum falcipain 2 using Z-Phe-Arg-AMC as substrate by fluorometric assay
T3 sequence (Q9N6S8 whole entry): T1 sequence (whole entry)

Leishmania major [8] = test: Antileishmanial activity against luciferase-fused Leishmania major amastigotes infected in BMDM after 24 hrs by luminescence assay; type: functional, organism-based
Procathepsin L [9] = target: T2, Procathepsin L; test: Inhibition of human cathepsin-L using Z-Phe-Arg-AMC as substrate by fluorometric assay
Target sequence in this assay (P07711 whole entry): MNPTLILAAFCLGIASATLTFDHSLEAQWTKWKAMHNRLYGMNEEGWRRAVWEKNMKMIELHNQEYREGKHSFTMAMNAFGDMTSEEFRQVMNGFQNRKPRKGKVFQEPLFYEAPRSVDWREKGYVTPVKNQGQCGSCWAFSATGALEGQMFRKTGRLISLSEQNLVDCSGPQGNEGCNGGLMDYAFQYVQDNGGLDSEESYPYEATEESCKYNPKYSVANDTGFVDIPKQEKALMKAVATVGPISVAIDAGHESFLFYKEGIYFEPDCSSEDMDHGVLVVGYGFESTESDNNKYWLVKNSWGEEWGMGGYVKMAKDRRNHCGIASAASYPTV

Leishmania major [10] = test: Antileishmanial activity against Leishmania major promastigotes at 20 uM; type: functional, organism-based
Leishmania mexicana [11] = test: Inhibition of Leishmania mexicana cathepsin L-like protease CPB2.8 assessed as second order inactivation rate constant using Z-Phe-Arg-AMC as substrate by fluorometric assay
Procathepsin L [12] = target: T2, Procathepsin L; test: Inhibition of human cathepsin-L assessed as second order inactivation rate constant using Z-Phe-Arg-AMC as substrate by fluorometric assay
Target sequence in this assay (P07711 114-333 limits assumed): as the sequence (P07711 114-333 limits assumed) above

[13] = target: T1, Falcipain 2 (Plasmodium falciparum); test: Inhibition of Plasmodium falciparum falcipain 2 assessed as second order inactivation rate constant using Z-Phe-Arg-AMC as substrate by fluorometric assay
[14] = target: Cruzipain (Trypanosoma cruzi) (UniProt P25779); test: Inhibition of Trypanosoma cruzi cruzain assessed as second order inactivation rate constant using Z-Phe-Arg-AMC as substrate by fluorometric assay
[15] = target: Rhodesain (Trypanosoma brucei rhodesiense) (UniProt Q95PM0); test: Inhibition of Trypanosoma brucei rhodesiense rhodesain assessed as second order inactivation rate constant using Z-Phe-Arg-AMC as substrate by fluorometric assay
J774 = test: Cytotoxicity against mouse J774 cells; type: cell-based

Chain of Rhodesain (Q95PM0 whole entry): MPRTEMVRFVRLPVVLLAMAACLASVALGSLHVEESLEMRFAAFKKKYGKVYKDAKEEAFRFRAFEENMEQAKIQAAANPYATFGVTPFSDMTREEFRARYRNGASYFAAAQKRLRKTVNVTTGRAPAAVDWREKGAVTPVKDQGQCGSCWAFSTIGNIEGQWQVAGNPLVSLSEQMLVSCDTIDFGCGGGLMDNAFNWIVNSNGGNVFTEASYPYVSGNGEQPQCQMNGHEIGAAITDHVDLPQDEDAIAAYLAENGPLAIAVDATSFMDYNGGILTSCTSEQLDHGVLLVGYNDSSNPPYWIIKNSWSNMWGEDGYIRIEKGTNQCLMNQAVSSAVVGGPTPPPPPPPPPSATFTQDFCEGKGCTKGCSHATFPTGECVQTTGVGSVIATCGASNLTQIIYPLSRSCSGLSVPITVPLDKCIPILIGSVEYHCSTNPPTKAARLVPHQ
Chain of Rhodesain (Trypanosoma brucei rhodesiense) (Q95PM0 1-450): as the sequence (Q95PM0 whole entry) above
Chain of Cruzipain (Trypanosoma cruzi) (P25779 123-467 limits assumed): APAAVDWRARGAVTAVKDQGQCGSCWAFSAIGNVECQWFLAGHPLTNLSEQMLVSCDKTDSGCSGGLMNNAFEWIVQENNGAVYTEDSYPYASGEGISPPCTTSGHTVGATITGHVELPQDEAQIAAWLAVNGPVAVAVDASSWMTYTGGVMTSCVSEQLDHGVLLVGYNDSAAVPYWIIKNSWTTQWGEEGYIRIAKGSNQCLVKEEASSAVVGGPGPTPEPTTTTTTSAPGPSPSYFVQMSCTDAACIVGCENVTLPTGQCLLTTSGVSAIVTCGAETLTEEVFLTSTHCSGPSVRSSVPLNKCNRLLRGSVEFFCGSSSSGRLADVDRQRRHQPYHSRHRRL
Chain of Cruzipain (P25779 whole entry): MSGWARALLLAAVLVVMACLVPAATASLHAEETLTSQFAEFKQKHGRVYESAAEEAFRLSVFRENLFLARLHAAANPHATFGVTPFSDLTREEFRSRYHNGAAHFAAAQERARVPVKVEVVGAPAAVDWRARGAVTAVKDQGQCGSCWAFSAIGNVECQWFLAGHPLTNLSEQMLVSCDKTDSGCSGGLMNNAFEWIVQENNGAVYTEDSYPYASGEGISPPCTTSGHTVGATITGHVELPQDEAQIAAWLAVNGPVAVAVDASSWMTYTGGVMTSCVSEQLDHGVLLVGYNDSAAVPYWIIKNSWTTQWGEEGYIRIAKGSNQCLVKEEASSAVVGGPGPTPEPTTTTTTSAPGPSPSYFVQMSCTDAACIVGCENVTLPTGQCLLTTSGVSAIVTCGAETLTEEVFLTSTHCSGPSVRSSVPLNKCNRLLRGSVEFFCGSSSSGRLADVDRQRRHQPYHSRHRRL

inhibition (Cathepsin B)	inhibition [1]	Ki [2] [nM]	EC50 (Leishmania major [3]) [nM]	inhibition (Procathepsin L [4])	inhibition (Leishmania mexicana [5]) [%]	inhibition [6] [%]	inhibition [7] [%]	Ki (Falcipain 2) [nM]	EC50 (Leishmania major [8]) [nM]	SMILES	Ki (Cruzipain) [nM]	Ki (Rhodesain) [nM]	Ki (Procathepsin L [9]) [nM]	Activity (Leishmania major [10])	K (Leishmania mexicana [11]) [M⁻¹ s⁻¹]	K (Procathepsin L [12]) [M⁻¹ s⁻¹]	K [13] [M⁻¹ s⁻¹]	K [14] [M⁻¹ s⁻¹]	K [15] [M⁻¹ s⁻¹]	Activity (J774) [µM]
inactive	< 50%	–	–	< 50%	< 50	< 50	< 50	–	–	CC(C)C[C@H](NC(=O)OC(C)(C)C)C(=O)N1CCC[C@@H]1C(=O)N1C(C(=O)OCc2ccccc2)C1C(=O)OC(C)(C)C (mixture of isomers)	–	–	–	–	–	–	–	–	–	–
inactive	–	2100	35400	–	–	–	–	28300	2700	CC(C)C[C@@H](NC(=O)OC(C)(C)C)C(=O)N1CCC[C@H]1C(=O)N1[C@H](C(=O)OCc2ccccc2)[C@H]1C(=O)OCc1ccccc1	790	–	4000	–	–	–	–	–	–	–
inactive	< 50%	1360	–	< 50%	> 50	< 50	< 50	–	–	CC(C)C[C@H](NC(=O)OC(C)(C)C)C(=O)N1CCC[C@@H]1C(=O)N1C(C(=O)OCCCc2ccccc2)C1C(=O)OCc1ccccc1 (mixture of isomers)	–	–	–	–	–	–	–	–	–	–
inactive	inactive	–	–	inactive	–	–	–	–	–	CC(C)C[C@H](NC(=O)OC(C)(C)C)C(=O)N1CCC[C@H]1C(=O)N1[C@H](C(=O)OCc2ccccc2)[C@H]1C(=O)OCc1ccccc1	–	–	–	inactive	–	–	–	–	–	–
inactive	> 50%	–	–	< 50%	< 50	< 50	< 50	28600	–	CC(C)C[C@H](NC(=O)OC(C)(C)C)C(=O)N1CCC[C@@H]1C(=O)N1C(C(=O)O)C1C(=O)OCCCc1ccccc1 (mixture of isomers)	–	–	–	–	–	–	55.8	–	–	–
inactive	< 50%	900	–	< 50%	> 50	< 50	< 50	–	–	CC(C)C[C@H](NC(=O)OC(C)(C)C)C(=O)N1CCC[C@@H]1C(=O)N1C(C(=O)OCCCc2ccccc2)C1C(=O)OCCCc1ccccc1 (mixture of isomers)	–	–	–	–	–	–	–	–	–	–
inactive	< 50%	1920	–	< 50%	> 50	> 50	< 50	–	–	CC(C)C[C@H](NC(=O)OC(C)(C)C)C(=O)N1CCC[C@@H]1C(=O)N1C(C(=O)OCCc2ccccc2)C1C(=O)OCc1ccccc1 (mixture of isomers)	5500	–	–	–	–	–	–	–	–	–
–	–	–	9800	–	–	–	–	–	2000	CC[C@H](C)[C@H](NC(=O)OC(C)(C)C)C(=O)N1CCC[C@@H]1C(=O)N1[C@@H](C(=O)OCc2ccccc2)[C@@H]1C(=O)OCc1ccccc1	–	–	–	–	–	–	–	–	–	> 250

SMILES	inhibition (Cathepsin B)	inhibition [1]	Ki [2] [nM]	EC50 (Leishmania major [3]) [nM]	inhibition (Procathepsin L [4])	inhibition (Leishmania mexicana [5]) [%]	inhibition [6] [%]	inhibition [7] [%]	Ki (Falcipain 2) [nM]	EC50 (Leishmania major [8]) [nM]	Ki (Cruzipain) [nM]	Ki (Rhodesain) [nM]	Ki (Procathepsin L [9]) [nM]	Activity (Leishmania major [10])	K (Leishmania mexicana [11]) [M⁻¹ s⁻¹]	K (Procathepsin L [12]) [M⁻¹ s⁻¹]	K [13] [M⁻¹ s⁻¹]	K [14] [M⁻¹ s⁻¹]	K [15] [M⁻¹ s⁻¹]	Activity (J774) [µM]
CC(C)C[C@@H](NC(=O)OC(C)(C)C)C(=O)N1CCC[C@H]1C(=O)N1[C@@H](C(=O)OCc2ccccc2)[C@@H]1C(=O)OCc1ccccc1	inactive	inactive	3400	95000	inactive	–	–	–	–	–	30900	15200	–	–	–	–	–	–	–	–
CC(C)C[C@H](NC(=O)OC(C)(C)C)C(=O)N1CCC[C@@H]1C(=O)N1C(C(=O)O)C1C(=O)OCC1CCCCC1 (mixture of isomers)	inactive	> 50%	1790	–	> 50%	> 50	> 50	> 50	450	–	710	120	7300	–	893	232	1280	5380	8230	–
CC(C)C[C@H](NC(=O)OC(C)(C)C)C(=O)N1CCC[C@@H]1C(=O)N1C(C(=O)OCc2ccccc2)C1C(=O)OCc1ccccc1 (mixture of isomers)	inactive	> 50%	2800	–	> 50%	> 50	> 50	> 50	–	–	1800	1500	12000	–	–	–	–	–	–	–
